# In patent publication US7838659B2, “Herpesvirus ribozymes and vectors” (priority 2003, dated 2010):
# Assays:
# Format in all cases: cell-based
# [1] = tested on: HSV-1 17syn+ (drug sensitive); experiment: Multi-step replication, comparison with acyclovir, strain 17syn+; conditions: MOI 10^−3, 48 hours, rabbit skin cells
# Procedure: (§1) Four groups were included when testing the impact of the ribozyme on replication of drug resistant HSV-1 strains: mock infection and Ad-UL20 Rz treatments were performed as before; an adenovirus expressing GFP was used instead of ψ5; and an acyclovir (ACV) treatment (0.1 μM) was included. The dosage of acyclovir was determined by the threshold dose needed to distinguish drug resistance of HSV-1 (Thi, T. N., C. Deback, I. Malet, P. Bonnafous, Z. Ait-Arkoub, and H. Agut. 2006. Rapid determination of antiviral drug susceptibility of herpes simplex virus types 1 and 2 by real-time PCR. Antiviral Res 69:152-7). Forty-eight hours were allowed for HSV-1 infection to develop before cell lysates were harvested for titration. Five HSV-1 strains were tested: 17syn+ and KOS are drug sensitive strains, and PAAr5, tkLTRZ1, and ACG^r4 are drug resistant isolates.
# (§2) UL20-Rz154 inhibits viral replication of HSV-1 drug resistant strains. Ad-UL20 Rz154 was compared with acyclovir treatment in a multi-step infection at an MOI of 10^−3. […] In the case of PAAr5 infection, UL20 ribozyme reduced viral production by 99%; against tkLTRZ1 infection, it reduced virus yield by 76%; and against ACGr4 by 70%. Therefore, knocking down the expression of the UL20 gene led to a significant inhibition of HSV-1 viral replication in viral strains that were resistant to a conventional antiviral drug.
# [2] = tested on: HSV-1 KOS (drug sensitive); experiment: Multi-step replication, comparison with acyclovir, strain KOS; conditions: MOI 10^−3, 48 hours, rabbit skin cells
# Procedure: as §1, §2
# [3] = tested on: HSV-1 PAAr5 (drug resistant); experiment: Multi-step replication, comparison with acyclovir, strain PAAr5; conditions: strain PAAr5, MOI 10^−3, 48 hours, rabbit skin cells
# Procedure: as §1, §2
# [4] = tested on: HSV-1 tkLTRZ1 (drug resistant); experiment: Multi-step replication, comparison with acyclovir, strain tkLTRZ1; conditions: strain tkLTRZ1, MOI 10^−3, 48 hours, rabbit skin cells
# Procedure: as §1, §2
# [5] = tested on: HSV-1 ACGr4 (drug resistant); experiment: Multi-step replication, comparison with acyclovir, strain ACGr4; conditions: strain ACGr4, MOI 10^−3, 48 hours, rabbit skin cells
# Procedure: as §1, §2
smiles,measurement,setting,value
Nc1nc2c(ncn2COCCO)c(=O)[nH]1 [acyclovir],inhibition of HSV-1 viral production,[1],99%
same,inhibition of HSV-1 viral production,[2],80%
same,reduction of viral production,[3],no significant difference in HSV yields
same,reduction of virus yield,[4],no significant difference in HSV yields
same,reduction of virus yield,[5],no significant difference in HSV yields
